Measured values: US8785470B2, “Heterocyclic compounds and uses thereof” (Infinity Pharmaceuticals, Inc., priority 2011, dated 2014)
Read-outs that look alike come from different tables or passages of the source.

Columns and labels:
NZB/W model = conditions: profilactic and therapeutic model; reductions in auto-antibody production, kidney damage, improvements in survival; cited from earlier work
[1] = test system: phospho-AKT in 786-O cells (PI3Kβ); test: PI3Kβ selective assay, phospho-AKT in 786-O cells; format: cell-based; conditions: Homo sapiens, 786-0, read-out: IC50 for phospho-AKT, 786-O cell model
Text: A compound's ability in selectively inhibiting PI3Kβ can be assessed using 786-O cells, i.e., human kidney carcinoma cell line. Briefly, 786-O cells, in which PI3Kβ is constitutively active, can be treated with test compounds. Test compounds' ability to inhibit AKT phosphorylation in 786-O cells, therefore, is indicative of selective inhibition of PI3β. Thus, by monitoring the reduction of phospho-AKT in 786-O cells (using for example, phospho-AKT antibodies), a compound's potential efficacy in selectively inhibiting PI3Kβ can be assessed.
Certain compounds provided herein (e.g., Compounds 5, 49, 138, 326, 328, 354, 359, 389, and 391) were tested in 786-O cell model using procedures as described above.

[2] = test system: phospho-AKT in SKOV-3 cells (PI3Kα); test: PI3Kα selective assay, phospho-AKT in SKOV-3 cells; format: cell-based; conditions: Homo sapiens, SK-OV-3, read-out: IC50 for phospho-AKT, SKOV-3 cell model
Text: A compound's ability in selectively inhibiting PI3Kα can be assessed using SKOV-3 cells, i.e., human ovarian carcinoma cell line. Briefly, SKOV-3 cells, in which mutant PI3Kα is constitutively active, can be treated with test compounds. Test compounds' ability to inhibit AKT phosphorylation in SKOV-3 cells, therefore, is indicative of selective inhibition of PI3Kα. Thus, by monitoring the reduction of phospho-AKT in SKOV-3 cells (using for example, phospho-AKT antibodies), a compound's potential efficacy in selectively inhibiting PI3Kα can be assessed.
Certain compounds provided herein (e.g., Compounds 5, 49, 138, 326, 328, 354, 359, 389, and 391) were tested in SKOV-3 cell model using procedures as described above.

[3] = test system: phospho-AKT in RAW 264.7 cells (PI3Kγ); test: PI3Kγ selective assay, phospho-AKT in RAW 264.7 cells; format: cell-based; conditions: Mus musculus, RAW264.7, stimulated with C5a, read-out: IC50 for phospho-AKT, RAW 264.7 cell model
Summary of the method: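 Serum-starved RAW 264.7 macrophages are stimulated with the GPCR agonist C5a and treated with compound before, with or after stimulation. Inhibition is read as reduced C5a-induced phospho-AKT, detected for example with phospho-AKT antibodies.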

PI3Kα = target: T1, PI3Kα (Homo sapiens, UniProt P42336); test: PI3-Kinase HTRF assay, PI3Kα; format: biochemical; conditions: bins Greater than 10 μM and Greater than 1 μM to 10 μM; 10 μM ATP, PIP2 at 10 μM; read-out: IC50 P13Kα
T1 construct: purchased Millipore Corporation 14-602-K
Summary of the method: (§1)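 Purified recombinant human PI3Kα, β, γ or δ (0.25-0.3 μg/ml) preincubated 15 min at room temperature with compound (2% DMSO) and 10 μM PIP2, then reacted 1 h with 10 μM ATP. PIP3 product detected by competitive HTRF (GST-PH domain/biotin-PIP3); IC50 from 12-point curves, 20 μM to 0.1 nM, by nonlinear regression.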

Balb/c splenic B cells = test: B cell activation and proliferation assay; format: cell-based; conditions: Mus musculus, column bins 1 μM to 100 nM (given as 100-1000) and Less than 100 nM, read-out: B cell proliferation EC50
Summary of the method: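 Balb/c splenic B cells were isolated by Ficoll gradient and magnetic separation, plated at 50.000 cells/well in RPMI/10% FBS, and pre-incubated with compound for 30 min at 37° C (0.2% DMSO). Cells were stimulated for 72 h with a cocktail of 10 μg/ml LPS or 5 μg/ml anti-mouse IgM F(ab′)2 plus 2 ng/ml IL4. Alamar Blue fluorescence (560Ex/590Em) after 5 h gave IC50 or EC50.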

[4] = test system: phospho-AKT in RAJI cells (PI3Kδ); test: PI3Kδ selective assay, phospho-AKT in RAJI cells; format: cell-based; conditions: RAJI cells stimulated with anti-human IgM; read-out: IC50 for phospho-AKT, RAJI cell model
Summary of the method: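 Serum-starved RAJI B-lymphoma cells stimulated with anti-human IgM to trigger B-cell receptor signaling; compound effect read as reduction of phospho-AKT, for example detected with phospho-AKT antibodies.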

PI3Kβ = target: T2, PI3Kβ (Homo sapiens, UniProt P42338); test: PI3-Kinase HTRF assay, PI3Kβ; format: biochemical; conditions: bins Greater than 10 μM and Greater than 1 μM to 10 μM; 10 μM ATP, PIP2 at 10 μM
T2 construct: purchased Millipore Corporation 14-603-K
Summary of the method: as §1

PI3Kγ = target: T3, PI3Kγ (Homo sapiens, UniProt P48736); test: PI3-Kinase HTRF assay, PI3Kγ; format: biochemical; conditions: bins Greater than 10 μM and Greater than 1 μM to 10 μM; 10 μM ATP, PIP2 at 10 μM
T3 construct: purchased Millipore Corporation 14-558-K
Text: (§2) A PI3-Kinase HTRF® assay kit (cat No. 33-016) purchased from Millipore Corporation was used to screen compounds provided herein. This assay used specific, high affinity binding of the GRPI pleckstrin homology (PH) domain to PIP3, the product of a Class 1A or 1B PI3 Kinase acting on its physiological substrate PIP2. During the detection phase of the assay, a complex was generated between the GST-tagged PH domain and biotinylated short chain PIP3. The biotinylated PIP3 and the GST-tagged PH domain recruited fluorophores (Streptavidin-Allophycocyanin and Europium-labeled anti-GST respectively) to form the fluorescence resonance energy transfer (FRET) architecture, generating a stable time-resolved FRET signal. The FRET complex was disrupted in a competitive manner by non-biotinylated PIP3, a product formed in the PI3 Kinase assay.
(§3) PI3 Kinase α, β, γ and δ activity was assayed using the PI3 Kinase HTRF® assay kit (catalogue No. 33-016) purchased from Millipore Corporation. Purified recombinant PI3Kα (catalogue No. 14-602-K), PI3Kβ (catalogue No. 14-603-K), PI3Kγ (catalogue No. 14-558-K) and PI3Kδ (catalogue No. 14-604-K) were obtained from Millipore Corporation. Purified recombinant PI3K enzyme was used to catalyze the phosphorylation of phosphatidylinositol 4,5-bisphosphate (PIP2 at 10 μM) to phosphatidylinositol 3,4,5-trisphosphate (PIP3) in the presence of 10 μM ATP. The assay was carried out in 384-well format and detected using a Perkin Elmer EnVision Xcite Multilabel Reader. Emission ratios were converted into percent inhibitions and imported into GraphPad Prism software. The concentration necessary to achieve inhibition of enzyme activity by 50% (IC50) was calculated using concentrations ranging from 20 μM to 0.1 nM (12-point curve). IC50 values were determined using a nonlinear regression model available in GraphPad Prism 5. […]

PI3Kδ = target: T4, PI3Kδ (Homo sapiens, UniProt O00329); test: PI3-Kinase HTRF assay, PI3Kδ; format: biochemical; conditions: bins Greater than 10 μM and Greater than 1 μM to 10 μM; 10 μM ATP, PIP2 at 10 μM
T4 construct: purchased Millipore Corporation 14-604-K
Text: as §2, §3

B6.Slez.Sle3z model = conditions: cited from earlier work
[5] = PBS at pH 7.4, 37° C., 24 hours; cited from earlier work
[6] = test system: leukemic cells from p190 transduced cultures; conditions: about 70 mg/kg twice daily; cited from earlier work
[7] = control or reference compounds, 5 μM; cited from earlier work
[8] = ranges between 1 μM and 10 μM and greater than 10 μM
[9] = ranges less than 100 nM and between 100 nM and 1 μM (given as 100-1000)
[10] = range between 100 nM and 1 μM (given as 100-1000)

T1 sequence (P42336 whole entry): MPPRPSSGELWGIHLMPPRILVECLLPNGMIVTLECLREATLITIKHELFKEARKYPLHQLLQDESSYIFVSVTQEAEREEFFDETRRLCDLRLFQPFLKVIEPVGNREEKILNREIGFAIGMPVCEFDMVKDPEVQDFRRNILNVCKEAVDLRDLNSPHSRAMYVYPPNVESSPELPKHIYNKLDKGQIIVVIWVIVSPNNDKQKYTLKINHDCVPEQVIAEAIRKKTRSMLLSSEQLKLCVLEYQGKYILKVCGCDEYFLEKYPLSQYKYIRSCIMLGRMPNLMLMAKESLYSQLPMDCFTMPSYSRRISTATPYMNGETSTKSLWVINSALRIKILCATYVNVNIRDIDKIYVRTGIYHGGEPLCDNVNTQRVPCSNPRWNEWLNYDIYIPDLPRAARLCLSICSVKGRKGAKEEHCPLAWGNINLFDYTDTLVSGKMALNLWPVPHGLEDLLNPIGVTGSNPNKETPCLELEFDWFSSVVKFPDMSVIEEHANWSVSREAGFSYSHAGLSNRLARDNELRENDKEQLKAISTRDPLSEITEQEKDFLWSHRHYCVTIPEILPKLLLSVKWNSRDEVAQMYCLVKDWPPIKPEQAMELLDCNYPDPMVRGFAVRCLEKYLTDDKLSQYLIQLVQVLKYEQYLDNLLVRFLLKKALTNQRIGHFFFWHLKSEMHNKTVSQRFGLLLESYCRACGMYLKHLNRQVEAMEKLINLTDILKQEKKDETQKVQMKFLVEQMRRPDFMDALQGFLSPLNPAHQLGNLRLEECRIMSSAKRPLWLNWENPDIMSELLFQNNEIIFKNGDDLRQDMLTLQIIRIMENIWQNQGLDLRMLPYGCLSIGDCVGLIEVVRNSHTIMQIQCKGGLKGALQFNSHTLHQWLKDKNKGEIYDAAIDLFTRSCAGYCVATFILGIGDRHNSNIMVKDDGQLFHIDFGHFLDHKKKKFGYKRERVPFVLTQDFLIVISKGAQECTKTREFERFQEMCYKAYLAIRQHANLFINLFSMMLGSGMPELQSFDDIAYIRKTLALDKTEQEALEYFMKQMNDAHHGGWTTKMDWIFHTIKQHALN
T1 sequence (P27986 whole entry partner): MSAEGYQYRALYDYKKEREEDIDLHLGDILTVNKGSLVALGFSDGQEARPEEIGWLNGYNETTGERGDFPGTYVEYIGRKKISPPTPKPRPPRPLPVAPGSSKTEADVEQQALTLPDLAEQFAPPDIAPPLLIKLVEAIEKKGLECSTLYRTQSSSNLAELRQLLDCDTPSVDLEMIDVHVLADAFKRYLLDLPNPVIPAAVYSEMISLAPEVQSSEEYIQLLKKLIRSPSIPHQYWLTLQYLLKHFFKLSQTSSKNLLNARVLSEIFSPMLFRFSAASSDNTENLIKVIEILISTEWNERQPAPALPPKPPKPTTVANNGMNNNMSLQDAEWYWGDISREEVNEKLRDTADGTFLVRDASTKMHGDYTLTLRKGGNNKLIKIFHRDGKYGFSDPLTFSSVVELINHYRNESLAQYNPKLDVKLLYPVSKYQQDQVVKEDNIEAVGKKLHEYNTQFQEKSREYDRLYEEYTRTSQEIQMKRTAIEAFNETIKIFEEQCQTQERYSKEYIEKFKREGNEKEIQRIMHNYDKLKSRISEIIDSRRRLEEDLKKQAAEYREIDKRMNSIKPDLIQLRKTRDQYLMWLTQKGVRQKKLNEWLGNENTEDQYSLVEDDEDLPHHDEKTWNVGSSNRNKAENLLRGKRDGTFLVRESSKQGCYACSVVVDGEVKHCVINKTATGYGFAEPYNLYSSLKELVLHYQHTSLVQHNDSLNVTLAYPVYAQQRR
T2 sequence (P42338 whole entry): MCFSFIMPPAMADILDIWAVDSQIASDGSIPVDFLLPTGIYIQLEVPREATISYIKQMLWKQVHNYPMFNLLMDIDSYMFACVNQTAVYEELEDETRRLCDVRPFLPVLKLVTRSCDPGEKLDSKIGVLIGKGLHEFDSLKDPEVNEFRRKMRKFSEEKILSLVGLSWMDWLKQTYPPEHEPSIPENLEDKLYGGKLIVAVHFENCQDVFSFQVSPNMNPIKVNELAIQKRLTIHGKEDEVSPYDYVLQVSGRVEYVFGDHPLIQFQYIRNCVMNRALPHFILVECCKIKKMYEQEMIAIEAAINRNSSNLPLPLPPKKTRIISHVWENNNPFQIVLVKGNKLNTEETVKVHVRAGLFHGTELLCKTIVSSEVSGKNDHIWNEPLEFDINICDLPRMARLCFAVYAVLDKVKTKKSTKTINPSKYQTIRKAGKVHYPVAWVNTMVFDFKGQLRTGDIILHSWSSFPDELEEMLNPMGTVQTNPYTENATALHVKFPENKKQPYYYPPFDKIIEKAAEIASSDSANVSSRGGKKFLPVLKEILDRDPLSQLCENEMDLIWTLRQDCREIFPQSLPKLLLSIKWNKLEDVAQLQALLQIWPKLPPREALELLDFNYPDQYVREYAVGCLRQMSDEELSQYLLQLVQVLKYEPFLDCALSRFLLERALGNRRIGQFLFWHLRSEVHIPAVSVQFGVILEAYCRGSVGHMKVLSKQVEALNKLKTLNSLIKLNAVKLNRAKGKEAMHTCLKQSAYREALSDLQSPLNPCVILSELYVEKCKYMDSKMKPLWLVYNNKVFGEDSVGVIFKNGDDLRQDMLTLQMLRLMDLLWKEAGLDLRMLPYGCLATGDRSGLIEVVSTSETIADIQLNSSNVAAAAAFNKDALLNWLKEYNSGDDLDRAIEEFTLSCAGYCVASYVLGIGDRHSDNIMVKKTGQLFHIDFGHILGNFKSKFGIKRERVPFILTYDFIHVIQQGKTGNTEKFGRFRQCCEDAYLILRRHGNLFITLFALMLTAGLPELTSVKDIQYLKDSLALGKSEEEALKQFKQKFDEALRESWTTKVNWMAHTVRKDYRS
T2 sequence (P27986 whole entry partner): as the sequence (P27986 whole entry partner) above
T3 sequence (P48736 whole entry): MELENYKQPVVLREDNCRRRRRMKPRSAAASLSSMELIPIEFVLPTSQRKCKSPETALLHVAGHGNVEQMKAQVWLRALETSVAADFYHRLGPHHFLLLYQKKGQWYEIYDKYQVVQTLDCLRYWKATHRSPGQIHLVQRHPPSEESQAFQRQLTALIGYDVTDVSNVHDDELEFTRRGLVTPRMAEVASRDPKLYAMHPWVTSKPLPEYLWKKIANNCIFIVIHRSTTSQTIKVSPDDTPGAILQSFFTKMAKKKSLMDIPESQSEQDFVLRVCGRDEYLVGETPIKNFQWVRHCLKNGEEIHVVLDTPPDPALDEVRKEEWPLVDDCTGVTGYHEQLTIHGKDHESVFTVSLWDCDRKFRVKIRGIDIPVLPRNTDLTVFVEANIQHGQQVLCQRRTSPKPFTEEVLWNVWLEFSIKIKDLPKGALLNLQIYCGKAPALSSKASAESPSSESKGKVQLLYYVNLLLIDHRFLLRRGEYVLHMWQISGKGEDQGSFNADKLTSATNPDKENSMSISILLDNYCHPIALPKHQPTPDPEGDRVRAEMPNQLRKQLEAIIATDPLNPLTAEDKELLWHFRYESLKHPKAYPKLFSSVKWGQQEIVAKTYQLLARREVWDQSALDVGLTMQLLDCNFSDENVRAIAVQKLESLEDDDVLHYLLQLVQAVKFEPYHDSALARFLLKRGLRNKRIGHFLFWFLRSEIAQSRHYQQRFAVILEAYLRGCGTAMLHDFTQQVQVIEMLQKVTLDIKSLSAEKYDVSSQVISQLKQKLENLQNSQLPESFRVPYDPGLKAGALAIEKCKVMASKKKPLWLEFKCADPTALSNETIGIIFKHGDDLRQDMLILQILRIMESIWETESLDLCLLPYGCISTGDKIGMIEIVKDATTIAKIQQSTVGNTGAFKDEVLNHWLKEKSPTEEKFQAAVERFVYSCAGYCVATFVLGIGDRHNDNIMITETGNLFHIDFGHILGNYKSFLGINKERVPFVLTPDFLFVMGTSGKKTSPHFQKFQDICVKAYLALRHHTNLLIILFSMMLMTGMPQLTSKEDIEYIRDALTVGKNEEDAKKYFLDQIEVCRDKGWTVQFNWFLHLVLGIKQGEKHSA
T4 sequence (O00329 whole entry): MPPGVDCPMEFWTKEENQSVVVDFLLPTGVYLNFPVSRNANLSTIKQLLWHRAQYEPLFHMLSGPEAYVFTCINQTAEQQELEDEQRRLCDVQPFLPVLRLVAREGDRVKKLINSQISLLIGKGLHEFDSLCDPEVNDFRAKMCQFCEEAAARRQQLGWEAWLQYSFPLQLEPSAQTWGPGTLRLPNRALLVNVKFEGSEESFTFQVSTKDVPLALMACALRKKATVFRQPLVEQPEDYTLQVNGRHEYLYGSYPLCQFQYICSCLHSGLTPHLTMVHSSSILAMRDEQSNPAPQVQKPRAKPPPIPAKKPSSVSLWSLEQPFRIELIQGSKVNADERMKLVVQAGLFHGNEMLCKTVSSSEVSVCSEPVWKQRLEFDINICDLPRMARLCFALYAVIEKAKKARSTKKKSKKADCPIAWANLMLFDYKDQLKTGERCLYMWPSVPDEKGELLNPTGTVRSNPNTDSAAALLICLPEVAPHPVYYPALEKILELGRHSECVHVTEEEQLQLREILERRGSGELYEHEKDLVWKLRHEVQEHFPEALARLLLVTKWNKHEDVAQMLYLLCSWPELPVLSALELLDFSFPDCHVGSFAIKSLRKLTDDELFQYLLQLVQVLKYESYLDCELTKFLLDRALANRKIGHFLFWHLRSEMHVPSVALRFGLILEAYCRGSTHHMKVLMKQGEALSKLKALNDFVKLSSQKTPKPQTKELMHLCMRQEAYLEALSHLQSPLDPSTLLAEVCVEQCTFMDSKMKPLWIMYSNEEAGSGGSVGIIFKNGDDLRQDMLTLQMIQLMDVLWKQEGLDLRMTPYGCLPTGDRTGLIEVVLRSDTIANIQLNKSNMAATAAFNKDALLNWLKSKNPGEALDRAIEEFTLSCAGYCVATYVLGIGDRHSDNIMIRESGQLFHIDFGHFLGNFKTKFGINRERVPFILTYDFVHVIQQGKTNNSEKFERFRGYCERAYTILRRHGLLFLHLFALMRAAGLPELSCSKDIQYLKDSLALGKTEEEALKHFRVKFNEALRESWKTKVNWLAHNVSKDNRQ
T4 sequence (P27986 whole entry partner): as the sequence (P27986 whole entry partner) above

In the case of `CC(C)C[C@H](NC(=O)[C@H](Cc1ccccc1)NC(=O)c1cnccn1)B(O)O` [Bortezimib, bortezomib], the “blocking disease in the NZB/W model” value (NZB/W model) is listed as “effective at blocking disease”.

With `COc1ncc(-c2cccc3cc([C@H](C)Nc4nc(N)ncc4C#N)n(-c4ccccc4)c(=O)c23)cn1` [Compound 5, (S)-2-amino-4-((1-(8-(2-methoxypyrimidin-5-yl)-1-oxo-2-phenyl-1,2-dihydroisoquinolin-3-yl)ethyl)amino)pyrimidine-5-carbonitrile] the IC50 [1, 8] was > 10000 nM, the IC50 [2, 8] was 1000 to 10000 nM and the IC50 [3, 9] was < 100 nM. The IC50 (PI3Kα) was 1000 to 10000 nM, the EC50 (Balb/c splenic B cells) was < 100 nM and the IC50 [4] was < 100 nM.

For `COc1cc(-c2cccc3cc([C@H](C)Nc4nc(N)ncc4C#N)n(-c4ccccc4)c(=O)c23)ccn1` [Compound 49], the IC50 [1, 8] was 1000 to 10000 nM, the IC50 [2, 8] was 1000 to 10000 nM and the IC50 [3, 9] was < 100 nM. The IC50 (PI3Kβ) was 1000 to 10000 nM, the EC50 (Balb/c splenic B cells) was < 100 nM and the IC50 [4] was < 100 nM.

For `CCOc1nc(-c2cnc(N)nc2N[C@@H](C)c2cc3cccc(-c4ccc(=O)n(C)c4)c3c(=O)n2-c2ccccc2)cs1` [Compound 138], the IC50 [1, 8] was 1000 to 10000 nM, the IC50 [2, 10] was 100 to 1000 nM and the IC50 [3, 9] was < 100 nM. The IC50 (PI3Kβ) was 1000 to 10000 nM, the IC50 (PI3Kα) was 1000 to 10000 nM and the IC50 [4] was < 100 nM.

`CC(C)n1c([C@H](C)Nc2nc(N)ncc2C#N)cc2cccc(-c3ccc(=O)n(C)c3)c2c1=O` [Compound 326] showed an IC50 [1, 10] of 100 to 1000 nM, an IC50 [2, 8] of 1000 to 10000 nM and an IC50 [3, 9] of 100 to 1000 nM. For the same compound, the IC50 (PI3Kβ) was 1000 to 10000 nM, the IC50 (PI3Kα) was 1000 to 10000 nM and the IC50 [4] was < 100 nM.

Compound `Cc1ncc(-c2cccc3cc([C@H](C)Nc4nc(N)ncc4C#N)n(C(C)C)c(=O)c23)cn1` [Compound 328] has an IC50 [1, 8] of 1000 to 10000 nM, an IC50 (PI3Kγ) of 1000 to 10000 nM and an IC50 [2, 10] of 100 to 1000 nM. For the same compound, the IC50 [3, 9] was 100 to 1000 nM and the IC50 [4] was < 100 nM.

In the case of `C[C@H](Nc1nc(N)ncc1C#N)c1cc2cccc(Cl)c2c(C(=O)NC2CCOCC2)n1` [Compound 354], the IC50 [1, 8] is reported as 1000 to 10000 nM, the IC50 [2, 8] is reported as > 10000 nM and the IC50 ([3]; range between 1 μM and 10 μM) is reported as 1000 to 10000 nM. The IC50 (PI3Kδ) was 1000 to 10000 nM and the IC50 [4] was < 100 nM.

For `CC(C)n1c([C@H](C)Nc2ncnc(N)c2C#N)cc2cccc(-c3ccc(=O)n(C)c3)c2c1=O` [Compound 359], the IC50 [1, 10] was 100 to 1000 nM, the IC50 [2, 8] was 1000 to 10000 nM and the IC50 ([3]; range between 1 μM and 10 μM) was 1000 to 10000 nM. The IC50 (PI3Kβ) was 1000 to 10000 nM, the IC50 (PI3Kα) was 1000 to 10000 nM and the IC50 [4] was < 100 nM.

For `COc1ncc(-c2cccc3cc([C@H](C)Nc4nc(N)ncc4-c4cncs4)n(-c4ccccc4)c(=O)c23)cn1` [Compound 389], the IC50 [1, 8] was 1000 to 10000 nM, the IC50 [2, 8] was 1000 to 10000 nM and the IC50 [3, 9] was 100 to 1000 nM. For the same compound, the IC50 (PI3Kβ) was 1000 to 10000 nM, the IC50 (PI3Kα) was 1000 to 10000 nM and the IC50 [4] was < 100 nM.

For `CO[C@H]1C[C@@H]2CC[C@@H](C)[C@@](O)(O2)C(=O)C(=O)N2CCCC[C@H]2C(=O)O[C@H]([C@H](C)C[C@@H]2CC[C@@H](OCCO)[C@H](OC)C2)CC(=O)[C@H](C)/C=C(\C)[C@@H](O)[C@@H](OC)C(=O)[C@H](C)C[C@H](C)/C=C/C=C/C=C/1C` [RAD001, everolimus], the lupus symptoms (B6.Slez.Sle3z model) is given as “ameliorate lupus symptoms”.

For `O=C(O)CCCc1ccc(N(CCCl)CCCl)cc1` [chlorambucil], the chemical stability [5] is given as “largely hydrolyzed”.

For `Cc1ccc(NC(=O)c2ccc(CN3CCN(C)CC3)cc2)cc1Nc1nccc(-c2cccnc2)n1` [imatinib], the leukemogenesis [6] is given as “delay but not cure leukemogenesis”.

For `CC(C)[N+](C)(CCOC(=O)C1c2ccccc2Oc2ccccc21)C(C)C` [propantheline], the plasma stability [7] is listed as “intermediate plasma stability”.

In the case of `CCCOc1cc(N)ccc1C(=O)OCCN(CC)CC` [propoxycaine], the plasma stability [7] is given as “low plasma stability”.
